Data set [1] relates to Plasmodium falciparum. Description: Hit confirmation in dose-response curve in NF54 pLDH assay, at 72h. The format is functional, organism-based, Erythrocyte. Set-up: timepoint 72 hour.
Data set [2] has as its system Plasmodium falciparum. In words: Hit confirmation in dose-response curve in NF54 nanoGlo assay, at 12h. The format is functional, organism-based, Erythrocyte. Set-up: timepoint 12 hour.
The test system of data set [3] is Plasmodium falciparum. In words: Re-testing in dose-response curve in 3D7 pLDH assay, at 72h. The format is functional, organism-based, Erythrocyte. Set-up: timepoint 72 hour.
For data set [4], the system named is Plasmodium falciparum. In words: Hit confirmation in dose-response curve in NF54 nanoGlo assay, at 72h. The format is functional, organism-based, Erythrocyte. Set-up: timepoint 72 hour.
Data set [5] can be described thus: (§1) Hit confirmation in dose-response curve in HepG2 cytotoxicity assay, at 72h. The format is toxicity, cell-based, Homo sapiens. Set-up: timepoint 72 hour. To be noted: human, HepG2 cells.
For data set [6], the system named is Plasmodium falciparum. Description: Hit confirmation in dose-response curve in Dd2 pLDH assay, at 72h. Format: functional, organism-based, Erythrocyte. Set-up: timepoint 72 hour.
Data set [7] is described as follows: (§2) Re-testing in dose-response curve in HepG2 cytotoxicity assay, at 72h. The format is toxicity, cell-based, Homo sapiens. Also noted: timepoint 72 hour. To be noted: human, HepG2 cells.
The test system of data set [8] is HepG2. The data set is described as §2. Format: toxicity, cell-based, Homo sapiens. Also noted: timepoint 72 hour. The conditions noted are these: hepg2.
Data set [9] deals with Plasmodium falciparum. Description: Re-testing in dose-response curve in Dd2 pLDH assay, at 72h. Format: functional, organism-based, Erythrocyte. Also noted: timepoint 72 hour.
For data set [10], the system named is HepG2. The data set is described as §1. Also noted: timepoint 72 hour. To be noted: hepg2. The format is toxicity, cell-based, Homo sapiens.
The mark [11] stands for this setting: Plasmodium falciparum, NF54, Erythrocyte, 72 h.
The mark [12] stands for this setting: Plasmodium falciparum, NF54, Erythrocyte, 12 h.
Where [13] appears, read: Plasmodium falciparum, 3D7, Erythrocyte, 72 h.
The mark [14] stands for this setting: Plasmodium falciparum, Dd2, Erythrocyte, 72 h.

From ChEMBL document CHEMBL5308541, “MAIP: An Open-Source Tool to Enrich High-Throughput Screening Output and Identify Novel, Druglike Molecules with Antimalarial Activity” (ACS Med Chem Lett, 2023) come the findings set out here.

SMILES strings stand for the structures. Where “and” joins values, the source holds several entries; their conditions need not be identical. Equal entries are not always repeated. Some results are limits rather than exact numbers.

A word on the IC50: it is the point on the concentration scale where inhibition reaches its midpoint. A higher IC50 goes with weaker potency. On to `CN1CCC(Oc2ccc(NC(=O)c3cn4ccnc4s3)cn2)CC1`, for which the IC50 was 1.58 µM in [1] (setting [11]); 6.92 µM in [2] (setting [12]); 2.13 µM in data set [3] (setting [13]); 2.34 µM and 1.39 µM in [3] (erythrocyte); 1.29 µM in [4] (setting [11]); 0.933 µM in data set [6] (setting [14]). This molecule returned a concentration for half-maximal inhibition (IC50) in [8] of 18.7 µM. Further, the half-inhibitory concentration (IC50) at 72 h was above 10 µM in data set [5] and above 25 µM in [7].
As to `Brc1ccc2[nH]c3c(c2c1)CCCC3NC1CCc2[nH]cnc2C1` (configuration not stated), the half-maximal inhibitory concentration (IC50) in data set [1] (setting [11]) is 2.34 µM; in data set [2] (setting [12]) it was 1.74 µM; in data set [3] (setting [13]), around 3.04 µM; in data set [3] (erythrocyte), 3.4 µM; in [4] (setting [11]), 1.35 µM; in data set [6] (setting [14]), 1.7 µM. In data set [8], this molecule returned an IC50 of 4.23 µM. Also, the IC50 at 72 h was above 10 µM in [5] and 4.1 µM in data set [7].
In the case of `Cc1ccc(-c2cccc3c(C(=O)NCCCN4CCC(N5CCCCC5)CC4)cc(C)nc23)cc1`, the half-inhibitory concentration (IC50) was 1.2 µM in [1] (setting [11]); 1.41 µM in data set [2] (setting [12]); 0.478 µM in data set [3] (setting [13]); around 0.748 µM in data set [3] (erythrocyte); 1.2 µM in [4] (setting [11]); 1.17 µM in [6] (setting [14]). The IC50 in data set [8] was 3.45 µM. Also, the figures for the 50% inhibitory concentration (IC50) at 72 h in [5] and in data set [7] were 5.01 µM and 4.11 µM, respectively.
Regarding `c1ccc2c(CNCCC3CCN(c4ccncc4)CC3)csc2c1`, the IC50 was 1.82 µM in data set [1] (setting [11]); 7.41 µM in [2] (setting [12]); 0.449 µM in data set [3] (setting [13]); 0.418 µM in [3] (erythrocyte); 1.86 µM in data set [4] (setting [11]); 1.45 µM in data set [6] (setting [14]). In [8], this molecule gave an IC50 of 5.07 µM. The IC50 at 72 h in [5] came to 12.3 µM; in data set [7], 4.25 µM.
Consider `CCOc1cc(C(=O)NC2CCN(CC3CCCC3)CC2)cc(-c2ccccc2)c1OC`, for which the IC50 in data set [1] (setting [11]) was 3.89 µM; in data set [2] (setting [12]), 3.72 µM; in [3] (erythrocyte), 593 nM [middle of 6 runs]; in data set [4] (setting [11]), 1.48 µM; in data set [6] (setting [14]) it was 1.58 µM; in [9] (setting [14]), 11.5 µM. Further, the IC50 was 10.7 µM and 8.37 µM and 8.12 µM in data set [9] (erythrocyte); 10.3 µM in [8]. The IC50 at 72 h in [5] was above 10 µM; in data set [7] it was 10 µM.
With `CC(C)c1ccc(-c2nc(CN3CCCCC3)cc(CN3CCCCC3)c2O)cc1`, the 50% inhibitory concentration (IC50) in [1] (erythrocyte) is 2.69 µM; in [2] (erythrocyte), 3.98 µM; in data set [4] (erythrocyte), 1.78 µM; in data set [10], above 10 µM; in data set [6] (erythrocyte), 1.58 µM; in data set [9] (setting [14]), 0.949 µM. In addition, the IC50 was 0.923 µM in [9] (erythrocyte) and above 25 µM in data set [8].
Take `CCN1C[C@H](Nc2nc(C)nc3sccc23)[C@@H](OC)C1`: the half-inhibitory concentration (IC50) in data set [1] (setting [11]) was 1 µM; in data set [2] (setting [12]), 1.29 µM; in data set [3] (setting [13]), above 25 µM; in data set [4] (setting [11]), 0.933 µM; in data set [6] (setting [14]), 0.741 µM. The half-maximal inhibitory concentration (IC50) at 72 h in data set [5] was above 10 µM; in data set [7] it was above 25 µM.
As for `C[C@@H](CNC1CCN(C2CCN(C)CC2)CC1)c1cccc(Cl)c1`, the concentration for half-maximal inhibition (IC50) in data set [1] (setting [11]) is 0.891 µM; in data set [2] (setting [12]) it was 1.7 µM; in data set [3] (erythrocyte), 633 nM [middle of 4 runs]; in data set [4] (setting [11]) it was 0.724 µM; in data set [6] (setting [14]), 0.692 µM; in [9] (setting [14]), 1.38 µM. The same molecule had an IC50 in data set [8] of 8.18 µM. Moreover, the figures for the 50% inhibitory concentration (IC50) at 72 h in [5] and in data set [7] were above 10 µM and 9.55 µM, respectively.
For `Cc1cnccc1NCCNCc1ccc(OC(C)C)c(Cl)c1`, the IC50 was determined as 1.55 µM in data set [1] (setting [11]); 9.55 µM in data set [2] (setting [12]); 0.434 µM in data set [3] (setting [13]); 0.501 µM in data set [3] (erythrocyte); 1.05 µM in data set [4] (setting [11]); 0.977 µM in data set [6] (setting [14]). The same molecule showed an IC50 in data set [8] of 6.94 µM. In addition, the IC50 at 72 h in data set [5] was above 10 µM; in [7], 6.65 µM.
In the case of `CCCc1cccc(CNC2CCN(C3CCN(C)CC3)CC2)c1`, the IC50 in [1] (setting [11]) is 1.55 µM; in [2] (setting [12]), 4.79 µM; in data set [3] (erythrocyte) it was 620 nM [middle of 4 runs]; in data set [4] (setting [11]), 1.82 µM; in data set [6] (setting [14]) it was 1.38 µM; in data set [9] (setting [14]), 1.37 µM. Also, the IC50 stood at 1.41 µM in [9] (erythrocyte) and 7.92 µM in data set [8]. Besides, the half-maximal inhibitory concentration (IC50) at 72 h is above 10 µM in data set [5] and 11 µM in data set [7].
For `O=C(n1nnc2cc(Cl)c(Cl)cc21)C(F)(F)F`, the IC50 in [1] (setting [11]) was 4.9 µM; in [2] (setting [12]) it was above 10 µM; in [3] (setting [13]) it was 0.254 µM; in data set [3] (erythrocyte), 0.291 µM; in data set [4] (setting [11]), above 10 µM; in data set [6] (setting [14]), 0.955 µM. The half-inhibitory concentration (IC50) was 1.05 µM in data set [9] (setting [14]), 0.937 µM in data set [9] (erythrocyte) and 24.8 µM in data set [8]. For the same molecule, the figures for the IC50 at 72 h in data set [5] and in data set [7] were above 10 µM and 21 µM, respectively.
For `Cc1ccc(-c2cc(C(=O)NC3CCN(C4CCN(C)CC4)CC3)n[nH]2)cc1C`, the IC50 turned out to be 1.38 µM in [1] (setting [11]); 1.55 µM in data set [2] (setting [12]); 0.621 µM in [3] (setting [13]); 0.597 µM in [3] (erythrocyte); 0.955 µM in data set [4] (setting [11]); 0.955 µM in data set [6] (setting [14]). Also, the half-inhibitory concentration (IC50) in data set [9] (setting [14]) is 1.19 µM; in [9] (erythrocyte), 1.23 µM; in [8], 7.03 µM. The IC50 at 72 h turned out to be 7.76 µM in data set [5] and 5.93 µM in data set [7].
As for `CN(C)C1CCN(CCN[C@H]2CCc3ccc(F)cc32)CC1`, the half-inhibitory concentration (IC50) was 1.32 µM in data set [1] (setting [11]); above 10 µM in [2] (setting [12]); above 8.33 µM in data set [3] (setting [13]); 14.8 µM and 12.7 µM and 15.9 µM in data set [3] (erythrocyte); 0.812 µM in data set [4] (setting [11]); 0.708 µM in data set [6] (setting [14]). Further, the IC50 at 72 h in data set [5] was above 10 µM; in [7] it was above 25 µM.
On to `Fc1ccc(-n2cc(CNCCC3CCN(c4ccncc4)CC3)cn2)cc1`, for which the IC50 in data set [1] (setting [11]) was 1.74 µM; in [2] (setting [12]), 3.55 µM; in [3] (setting [13]) it was 0.391 µM; in data set [3] (erythrocyte), around 0.385 µM; in data set [4] (setting [11]), 1.58 µM; in data set [6] (setting [14]), 1.29 µM. In data set [8], this molecule had an IC50 of 5.84 µM. Also, the IC50 at 72 h was above 10 µM in data set [5] and 5.11 µM in data set [7].
With `CN(C)C1(CNc2nc(C(F)(F)F)nc3cc(F)ccc23)CCCCCC1`, the IC50 in [1] (setting [11]) was 0.724 µM; in data set [2] (setting [12]) it was above 10 µM; in data set [3] (setting [13]), 0.46 µM; in [3] (erythrocyte), 0.36 µM; in data set [4] (setting [11]), 1.02 µM; in [6] (setting [14]), 1.66 µM. Moreover, the half-maximal inhibitory concentration (IC50) in data set [9] (setting [14]) was found to be 1.74 µM; in data set [9] (erythrocyte) it was 1.76 µM; in [8], 9.28 µM. The half-maximal inhibitory concentration (IC50) at 72 h was above 10 µM in [5] and 8.91 µM in data set [7].
For the molecule `COc1ccc2c(O)c(Br)c(C)nc2c1`, the concentration for half-maximal inhibition (IC50) is 1.48 µM in data set [1] (setting [11]); above 10 µM in [2] (setting [12]); 0.0829 µM in data set [3] (setting [13]); 0.0908 µM in data set [3] (erythrocyte); 0.759 µM in data set [4] (setting [11]); 0.871 µM in data set [6] (setting [14]). The molecule also returned a 50% inhibitory concentration (IC50) in data set [8] of 21.9 µM. Also, the half-maximal inhibitory concentration (IC50) at 72 h in data set [5] is above 10 µM; in data set [7] it was 21.6 µM.
Regarding `c1ccc(CNc2ccc(-c3noc(C45CCCN(CCC4)C5)n3)cn2)cc1`, the IC50 in [1] (setting [11]) is 2.63 µM; in [2] (setting [12]), 3.24 µM; in [3] (setting [13]) it was around 9.41 µM; in data set [3] (erythrocyte), 9.78 µM; in data set [4] (setting [11]), 2.09 µM; in data set [6] (setting [14]), 1.99 µM. Moreover, in [8], it took 20.1 µM to reach half-maximal inhibition (IC50). In addition, the 50% inhibitory concentration (IC50) at 72 h in [5] is above 10 µM; in data set [7], 20.4 µM.
